Among the data in ChEMBL document CHEMBL3627677, “Novel 2H-chromen-2-one derivatives of resveratrol: Design, synthesis, modeling and use as human monoamine oxidase inhibitors” (Eur J Med Chem, 2015) are IC50, Ratio IC50 and LD50 values, retold here.

The IC50 is the midpoint of a concentration-inhibition curve. As a reminder, the LD50 is the dose expected to kill half of the subjects tested.

The structures appear in SMILES notation. Bounds are passed on as bounds.

The target of series [1] is T1, Amine oxidase [flavin-containing] B (Homo sapiens, UniProt P27338).
T1 sequence (P27338 whole entry): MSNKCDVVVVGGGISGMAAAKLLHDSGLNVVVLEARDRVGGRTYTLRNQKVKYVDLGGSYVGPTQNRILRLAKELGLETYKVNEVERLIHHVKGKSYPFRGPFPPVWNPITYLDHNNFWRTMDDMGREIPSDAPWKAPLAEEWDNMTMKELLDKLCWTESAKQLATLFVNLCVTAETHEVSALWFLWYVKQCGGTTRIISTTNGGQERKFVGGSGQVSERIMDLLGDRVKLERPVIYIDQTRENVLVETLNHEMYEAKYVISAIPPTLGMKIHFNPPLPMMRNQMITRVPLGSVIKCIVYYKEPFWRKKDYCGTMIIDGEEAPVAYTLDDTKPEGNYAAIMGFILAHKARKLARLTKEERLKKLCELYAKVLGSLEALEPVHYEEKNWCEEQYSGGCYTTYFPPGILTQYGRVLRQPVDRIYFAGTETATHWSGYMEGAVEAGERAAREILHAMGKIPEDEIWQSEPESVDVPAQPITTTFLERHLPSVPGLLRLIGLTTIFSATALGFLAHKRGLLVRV
The experiment in a line: Inhibition of recombinant human MAOB using p-tyramine as substrate assessed as H2O2 production preincubated for 15 mins followed by substrate addition by fluorometric analysis.

Series [2] has as its target T2, Amine oxidase [flavin-containing] A (Homo sapiens, UniProt P21397).
T2 sequence (P21397 whole entry): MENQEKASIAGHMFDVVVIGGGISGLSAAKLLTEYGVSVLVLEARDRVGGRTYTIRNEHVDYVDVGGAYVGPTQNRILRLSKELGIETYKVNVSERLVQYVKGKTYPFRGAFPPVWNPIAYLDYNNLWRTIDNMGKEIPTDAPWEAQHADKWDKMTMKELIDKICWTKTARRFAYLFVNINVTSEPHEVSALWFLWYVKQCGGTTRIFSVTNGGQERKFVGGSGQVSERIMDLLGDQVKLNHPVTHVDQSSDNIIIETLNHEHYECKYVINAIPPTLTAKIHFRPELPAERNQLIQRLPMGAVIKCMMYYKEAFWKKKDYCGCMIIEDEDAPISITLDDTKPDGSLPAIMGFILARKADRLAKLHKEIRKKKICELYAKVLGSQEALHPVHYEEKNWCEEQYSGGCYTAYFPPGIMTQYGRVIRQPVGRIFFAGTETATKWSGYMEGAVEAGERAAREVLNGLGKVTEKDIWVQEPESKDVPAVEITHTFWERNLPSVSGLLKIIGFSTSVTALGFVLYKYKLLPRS
The experiment in a line: Inhibition of recombinant human MAOA using p-tyramine as substrate assessed as H2O2 production preincubated for 15 mins followed by substrate addition by fluorometric analysis.

For series [3], the species on record is Homo sapiens. Briefly: Selectivity ratio of IC50 for recombinant human MAOA to IC50 for recombinant human MAOB.
For series [4], the species on record is Homo sapiens. The experiment in a line: Selectivity ratio of IC50 for recombinant human MAOB to IC50 for recombinant human MAOA.
The nature of series [5]: Toxicity in SPF Kuming mouse assessed as death at 500 to 1000 mg/kg, po measured up to 14 days. It is filed as organism-based. As to conditions: in vivo.

For the compound `COc1ccc(/C=C/c2cc(OC)cc(OC)c2/C=C/C(=O)c2cc3cccc(Br)c3oc2=O)cc1`, the concentration for half-maximal inhibition (IC50) in series [1] and in series [2] was greater than 60 µM in each case.
With `C=CCc1cc(OC)c2oc(=O)c(C(=O)/C=C/c3c(/C=C/c4ccc(OC)cc4)cc(OC)cc3OC)cc2c1`, the IC50 is 50.5 µM in series [1] and 5.3 µM in series [2]. For the same compound, the Ratio IC50 in the series filed under Homo sapiens [3] is 0.1; in the series filed under Homo sapiens [4] it was 9.53.
For `COc1ccc(/C=C/c2cc(OC)cc(OC)c2/C=C/C(=O)c2cc3cc(Br)cc(OC)c3oc2=O)cc1`, the IC50 in series [1] and in series [2] was greater than 60 µM throughout.
`COc1ccc(/C=C/c2cc(OC)cc(OC)c2/C=C/C(=O)c2cc3cc(Br)ccc3oc2=O)cc1`: the IC50 in series [1] was greater than 60 µM; in series [2] it was 12.1 µM. For the same compound, the Ratio IC50 in the series filed under Homo sapiens [3] was less than 0.2; in the series filed under Homo sapiens [4] it was greater than 4.95.
Turning to `COc1ccc(/C=C/c2cc(OC)cc(OC)c2/C=C/C(=O)c2cc3ccc(Br)cc3oc2=O)cc1`, the IC50 is 55.3 µM in series [1] and 3.01 µM in series [2]. Further, the Ratio IC50 in the series listed under Homo sapiens [3] stood at 0.05; in the series listed under Homo sapiens [4] it was 18.4.
For `COc1ccc(/C=C/c2cc(OC)cc(OC)c2/C=C/C(=O)c2cc3c(OC)cc(OC)cc3oc2=O)cc1`, the IC50 in series [1] is 35.5 µM; in series [2], 21.2 µM. The results for the Ratio IC50 in the series filed under Homo sapiens [3] and in the series listed under Homo sapiens [4] were 0.6 and 1.67, respectively.
Turning to `COc1ccc(/C=C/c2cc(OC)cc(OC)c2/C=C/C(=O)c2cc3ccc(OC)cc3oc2=O)cc1`, the IC50 in series [1] is 4.2 µM; in series [2], greater than 60 µM. Further, the Ratio IC50 in the series filed under Homo sapiens [3] is greater than 14.3; in the series filed under Homo sapiens [4] it was less than 0.07.
Turning to `CCOc1ccc2cc(C(=O)/C=C/c3c(/C=C/c4ccc(OC)cc4)cc(OC)cc3OC)c(=O)oc2c1`, the results for the IC50 in series [1] and in series [2] were 48.1 µM and 7.07 µM, respectively. Besides, the Ratio IC50 came out at 0.15 in the series filed under Homo sapiens [3] and 6.8 in the series listed under Homo sapiens [4].
As to `COc1ccc(/C=C/c2cc(OC)cc(OC)c2/C=C/C(=O)c2cc3ccc(C)cc3oc2=O)cc1`, the IC50 is 2.78 µM in series [1] and 58.2 µM in series [2]. The LD50 at 336 h in series [5] is greater than 1000 mg/kg. In addition, the Ratio IC50 in the series listed under Homo sapiens [3] worked out at 20.9; in the series listed under Homo sapiens [4], 0.05.
`COc1ccc(/C=C/c2cc(OC)cc(OC)c2/C=C/C(=O)c2cc3cccc(C)c3oc2=O)cc1`: the IC50 in series [1] is 20 µM; in series [2] it was greater than 60 µM. Besides, the Ratio IC50 in the series filed under Homo sapiens [3] was greater than 3; in the series listed under Homo sapiens [4], less than 0.33.
Regarding `COc1ccc(/C=C/c2cc(OC)cc(OC)c2/C=C/C(=O)c2cc3cccc(OC)c3oc2=O)cc1`, the IC50 in series [1] is 22.4 µM; in series [2] it was greater than 60 µM. Moreover, the results for the Ratio IC50 in the series listed under Homo sapiens [3] and in the series listed under Homo sapiens [4] were greater than 2.68 and less than 0.37, respectively.
With `COc1ccc(/C=C/c2cc(OC)cc(OC)c2/C=C/C(=O)c2cc3ccc(N(C)C)cc3oc2=O)cc1`, the IC50 in series [1] was greater than 60 µM.
With `COc1ccc(/C=C/c2cc(OC)cc(OC)c2/C=C/C(=O)c2cc3c(OC)cccc3oc2=O)cc1`, the IC50 in series [1] is 14.5 µM; in series [2], greater than 60 µM. In addition, the Ratio IC50 is greater than 4.13 in the series filed under Homo sapiens [3] and less than 0.24 in the series filed under Homo sapiens [4].
For `COc1ccc(/C=C/c2cc(OC)cc(OC)c2/C=C/C(=O)c2cc3ccc(Cl)cc3oc2=O)cc1`, the IC50 in series [1] was 7.36 µM; in series [2] it was greater than 60 µM. For the same compound, the Ratio IC50 was greater than 8.15 in the series listed under Homo sapiens [3] and less than 0.12 in the series listed under Homo sapiens [4].
On to `COc1ccc(/C=C/c2cc(OC)cc(OC)c2/C=C/C(=O)c2cc3cc(F)ccc3oc2=O)cc1`, for which the figures for the IC50 in series [1] and in series [2] were 10.2 µM and 44.3 µM, respectively. The Ratio IC50 in the series filed under Homo sapiens [3] was determined as 4.36; in the series filed under Homo sapiens [4], 0.23.
In the same order, the values of `COc1ccc(/C=C/c2cc(OC)cc(OC)c2/C=C/C(=O)c2cc3ccccc3oc2=O)cc1` are 9.17 µM, 41.7 µM, 4.54 and 0.22.
In the case of `COc1ccc(/C=C/c2cc(OC)cc(OC)c2/C=C/C(=O)c2cc3cc(Cl)ccc3oc2=O)cc1`, the IC50 in series [1] and in series [2] was greater than 60 µM throughout.
For `COc1ccc(/C=C/c2cc(OC)cc(OC)c2/C=C/C(=O)c2cc3cc(OC)ccc3oc2=O)cc1`, the concentration for half-maximal inhibition (IC50) in series [1] and in series [2] was greater than 60 µM throughout.
For `COc1ccc(/C=C/c2cc(OC)cc(OC)c2/C=C/C(=O)c2cc3cc(C)ccc3oc2=O)cc1`, the IC50 turned out to be 5.09 µM in series [1] and 30.4 µM in series [2]. The Ratio IC50 in the series filed under Homo sapiens [3] turned out to be 5.97; in the series listed under Homo sapiens [4], 0.17.
Regarding `CCOc1cccc2cc(C(=O)/C=C/c3c(/C=C/c4ccc(OC)cc4)cc(OC)cc3OC)c(=O)oc12`, the IC50 in series [1] was greater than 60 µM; in series [2] it was 3.2 µM. Further, the median lethal dose (LD50) at 336 h in series [5] is greater than 1000 mg/kg. Besides, the Ratio IC50 is less than 0.05 in the series filed under Homo sapiens [3] and greater than 18.8 in the series listed under Homo sapiens [4].
